Source: patent US9994556B2, “Triazole modified coumarin and biphenyl amide-based HSP90 inhibitors” (THE UNIVERSITY OF KANSAS, priority 2014, dated 2018)
“Also recorded” adds a separate entry of the source. Read-outs that look alike come from different tables or passages of the source.

Legend:
PC3-MM2 cells = assay: Sulforhodamine B assay, PC3-MM2; format: cell-based; details: Homo sapiens, PC3MM2, mean ± standard deviation
Experimental: (§1) c) Sulforhodamine B Assay
(§2) The sulforhodamine B assay is used to measure drug-induced cytotoxicity and cell proliferation for large-scale drug-screening applications. Its principle is based on the ability of the protein dye sulforhodamine B to bind electrostatically on pH dependent protein basic amino acid residues of trichloroacetic acid-fixed cells. The aim is to evaluate samples showing selective growth inhibition or cell killing of particular tumor cell lines.
(§3) The SRB assay is performed by treating cells using a 10 point dose-response curve. The cells are fixed with trichloroacetic acid solution and stained with sulforhodamine B dye. The stained cells are then solubilized with 10 mM Tris buffer and read for absorbance at 565 nm.
(§4) Percentage growth is calculated at each of the drug concentration levels using the absorbance raw data.
(§5) Percentage growth inhibition is calculated as: [(Ti−Tz)/(C−Tz)]×100 for concentrations for which Ti≥Tz. [(Ti−Tz)/(Tz)]×100 for concentrations for which Ti<Tz.
(§6) Ti=Absorbance of wells at a given drug concentration level.
(§7) Tz=Absorbance time zero wells
(§8) C=Absorbance of untreated wells (media and cells only)
(§9) After growth inhibition values have been calculated, the data is plotted on Graphpad Prism software. Data is entered and plotted on a sigmoidal dose-response curve using non-linear regression.

[1] = tested on: SKBr3, MDA-MB-468LN, MCF-7, MDA1986, JMAR, PC3-MM2 and LNCaP cell lines; assay: Antiproliferative activity against the panel of cancer cell lines; format: cell-based; details: for activity against all cell lines tested: panel of seven cancer cell lines
Experimental: (§10) a) MTS/PMS Cell Viability Assay (SKBr3 and MCF-7 Cells)
Cells were maintained in a 1:1 mixture of Advanced DMEM/F12 (Gibco) supplemented with non-essential amino acids, L-glutamine (2 mM), streptomycin (500 μg/mL), penicillin (100 units/mL), and 10% FBS. Cells were grown to confluence in a humidified atmosphere (37° C., 5% CO2), seeded (2000/well, 100 μL) in 96-well plates, and allowed to attach overnight. Compound at varying concentrations in DMSO (1% DMSO final concentration) was added, and cells were returned to the incubator for 72 hr. At 72 hr, the number of viable cells was determined using an MTS/PMS cell proliferation kit (Promega) per the manufacturer's instructions. Cells incubated in 1% DMSO were used at 100% proliferation, and values were adjusted accordingly. IC50 values were calculated from separate experiments performed in triplicate using GraphPad Prism. […]
(§11) b) Promega CellTiter-Glo (CTG) Luminescent Assay
Antiproliferative activities against MDA-MB-468LN, MDA1986 and JMAR cell lines were performed with 384-well white plates with the Promega CellTiter-Glo (CTG) luminescent assay with 72 hr compound treatment. Data analysis was performed using GraphPad Prism. Selected data were further checked with MTS/PMS cell viability assay with 96-well plates, which correlated well with Promega CellTiter-Glo luminescent assay. […]
as §1, §2, §3

MDA-MB-468LN cell line = assay: Promega CellTiter-Glo (CTG) luminescent assay, MDA-MB-468LN; format: cell-based; details: Homo sapiens, 72 hr, mean ± standard deviation
Experimental: as §11
(§12) Antiproliferative activities against MDA-MB-468LN, MDA1986 and JMAR cell lines were performed with 384-well white plates with the Promega CellTiter-Glo (CTG) luminescent assay with 72 hr compound treatment. Data analysis was performed using GraphPad Prism. Selected data were further checked with MTS/PMS cell viability assay with 96-well plates, which correlated well with Promega CellTiter-Glo luminescent assay.

MCF-7 cells = assay: MTS/PMS cell viability assay, MCF-7; format: cell-based; details: Homo sapiens, MCF7
Experimental: as §10
(§13) Cells were maintained in a 1:1 mixture of Advanced DMEM/F12 (Gibco) supplemented with non-essential amino acids, L-glutamine (2 mM), streptomycin (500 μg/mL), penicillin (100 units/mL), and 10% FBS. Cells were grown to confluence in a humidified atmosphere (37° C., 5% CO2), seeded (2000/well, 100 μL) in 96-well plates, and allowed to attach overnight. Compound at varying concentrations in DMSO (1% DMSO final concentration) was added, and cells were returned to the incubator for 72 hr. At 72 hr, the number of viable cells was determined using an MTS/PMS cell proliferation kit (Promega) per the manufacturer's instructions. Cells incubated in 1% DMSO were used at 100% proliferation, and values were adjusted accordingly. IC50 values were calculated from separate experiments performed in triplicate using GraphPad Prism.

JMAR cell line = assay: Promega CellTiter-Glo (CTG) luminescent assay, JMAR; format: cell-based; details: 72 hr, mean ± standard deviation
Experimental: as §11, §12

SKBr3 cells = assay: MTS/PMS cell viability assay, SKBr3; format: cell-based; details: Homo sapiens, SK-BR-3
Experimental: as §10, §13

[2] = tested on: Hsp90 client proteins Her2, Akt, Raf-1 and CDK6; assay: Western blot analyses of Hsp90 client protein degradation in MCF-7 cell lysates; format: cell-based, human; details: for client proteins Her2, Akt, Raf-1 and CDK6 (Western blot, concentration series) / Hsp90 client proteins Her2, Akt and Raf-1 (Western blot): 24 h; for client proteins Her2, Akt, Raf-1 and CDK6 (Western blot, concentration series): increasing concentrations; for Hsp90 client proteins Her2, Akt and Raf-1 (Western blot): MCF-7 lysates, L = 1/2 and H = 5 times the antiproliferative IC50
Experimental: (§14) MCF-7 cells were cultured as described above and treated with various concentrations of drug, Geldanamycin (GDA or G) in DMSO (1% DMSO final concentration), or vehicle (DMSO) for 24 hr. Cells were harvested in cold PBS and lysed in RIPA lysis buffer containing 1 mM PMSF, 2 mM sodium orthovanadate, and protease inhibitors on ice for 1 hr. Lysates were clarified at 14000 g for 10 min at 4° C. Protein concentrations were determined using the Pierce BCA protein assay kit per the manufacturer's instructions. Equal amounts of protein (15 μg) were electrophoresed under reducing conditions, transferred to a PVDF membrane, and immunoblotted with the corresponding specific antibodies. Membranes were incubated with an appropriate horseradish peroxidase-labeled secondary antibody, developed with a chemiluminescent substrate, and visualized.

MDA1986 cell line = assay: Promega CellTiter-Glo (CTG) luminescent assay, MDA1986; format: cell-based; details: 72 hr, mean ± standard deviation, read-out: IC50 MDA1986
Experimental: as §11, §12

LNCaP cells = assay: Sulforhodamine B assay, LNCaP; format: cell-based; details: Homo sapiens, mean ± standard deviation
Experimental: as §1, §2, §3, §4, §5, §6, §7, §8, §9

[3] = tested on: heat shock proteins Hsp27, Hsp70 and Hsp90; assay: Western blot analyses of heat shock proteins in MCF-7 cell lysates; format: cell-based, human; details: MCF-7 cells, 24 h, increasing concentrations of 5f
Experimental: as §14

Hsp90 C-terminus = assay: Proteolytic fingerprinting assay of Hsp90 from rabbit reticulocyte lysate; format: binding; details: band not detected for vehicle control
Experimental: e) Proteolytic Fingerprinting Assay
Rabbit reticulocyte (Green Hectares) incubated under conditions of protein synthesis at 30° C. in the presence of compound or vehicle (1% DMSO) for 10 minutes. Each reaction mixture contained 66.6% rabbit reticulocyte and 33.3% ATP regenerating system (10 mM creatine phosphate and 20 μg mL^−1 creatine phosphokinase) and a final concentration of 75 mM KCl. Each reaction mixture contained the indicated amount of compound. After incubating, the samples were immediately placed on ice and the indicated amount of TPCK-treated trypsin (Worthington) was added to each sample. The samples digested on ice for an additional 6 minutes and the reactions were quenched by the addition of Laemmli sample buffer followed by immediate boiling. Equal amounts of each sample were electrophoresed under reducing conditions (12% acrylamide gels), transferred to PVDF, and immunoblotted with an antibody specific to the Hsp90 C-terminus. Membranes were incubated with an appropriate horseradish peroxidase-labeled secondary antibody, developed with a chemiluminescent substrate, and visualized.

[4] = Table 2 biphenyl triazole analogues
[5] = Table 2 biphenyl triazole analogues, 72 hr, mean ± standard deviation, read-out: IC50 MCF-7
[6] = read-out: IC50 against MCF-7 cell line
[7] = Table 2 biphenyl triazole analogues, 72 hr, mean ± standard deviation, read-out: IC50 SKBr3
[8] = Table 1 coumarin-based triazoles
[9] = Table 1 coumarin-based triazoles, 72 hr, mean ± standard deviation, read-out: IC50 MCF-7
[10] = Table 1 coumarin-based triazoles, 72 hr, mean ± standard deviation, at least two experiments in triplicate, read-out: IC50 SKBr3

| SMILES | IC50 (PC3-MM2 cells; [4]) [nM] | IC50 (MDA-MB-468LN cell line; [4]) [nM] | IC50 (MCF-7 cells; [5]) [nM] | IC50 (MCF-7 cells; [6]) [nM] | IC50 (JMAR cell line; [4]) [nM] | IC50 (SKBr3 cells; [7]) [nM] | client proteins Her2, Akt, Raf-1 and CDK6 (Western blot, concentration series) ([2]; MCF-7 cells) | Hsp90 client proteins Her2, Akt and Raf-1 (Western blot) [2] | IC50 (MDA1986 cell line; [4]) [nM] | IC50 (LNCaP cells; [4]) [nM] | IC50 (PC3-MM2 cells; [8]) [nM] | activity against all cell lines tested [1] | IC50 (MDA-MB-468LN cell line; [8]) [nM] | IC50 (MCF-7 cells; [9]) [nM] | IC50 (JMAR cell line; [8]) [nM] | IC50 (SKBr3 cells; [10]) [nM] | IC50 (MDA1986 cell line; [8]) [nM] | IC50 (LNCaP cells; [8]) [nM] | other results |
| --- | --- | --- | --- | --- | --- | --- | --- | --- | --- | --- | --- | --- | --- | --- | --- | --- | --- | --- | --- |
| CN1CCC(Oc2ccc(-c3ccc(NC(=O)c4cn(Cc5ccccc5)nn4)cc3)cc2)CC1 [5b, 1-Benzyl-N-(4′-((1-methylpiperidin-4-yl)oxy)-[1,1′-biphenyl]-4-yl)-1H-1,2,3-triazole-4-carboxamide] | 550 ± 460 | 340 ± 70 | 500 ± 20 | 500 | 500 ± 60 | 170 ± 20 | degraded in a concentration-dependent manner | decreased; also recorded: Clear degradation | 280 ± 100 | 650 ± 540 | – | – | – | – | – | – | – | – | times more potent than 5a against all the cell lines evaluated ([1]; 5b compared with 5a): 2.5-8 times; IC50 (SKBr3 cells; read-out: IC50 against SKBr3 cell line): 170 nM |
| Cc1c(OC2CCN(C)CC2)ccc2cc(NC(=O)c3cn(-c4ccccc4)nn3)c(=O)oc12 [4a, N-(8-methyl-7-((1-methylpiperidin-4-yl)oxy)-2-oxo-2H-chromen-3-yl)-1-phenyl-1H-1,2,3-triazole-4-carboxamide] | – | – | – | – | – | – | – | – | – | – | 2690 | low micromolar | 1100 ± 210 | 1330 ± 130 | 2300 ± 400 | 940 ± 20 | 1500 ± 3400 | 4720 ± 710 | – |
| Cc1ccc(Cn2cc(C(=O)Nc3ccc(-c4ccc(OC5CCN(C)CC5)cc4)cc3)nn2)cc1 [5f, 1-(4-Methylbenzyl)-N-(4′-((1-methylpiperidin-4-yl)oxy)-[1,1′-biphenyl]-4-yl)-1H-1,2,3-triazole-4-carboxamide] | 360 ± 40 | 410 ± 260 | 120 ± 10 | 120 | 420 ± 70 | 170 ± 30 | degraded in a concentration-dependent manner | decreased; also recorded: Clear degradation | 360 ± 50 | 200 ± 40 | – | – | – | – | – | – | – | – | heat shock proteins Hsp27, Hsp70, or Hsp90 levels [3]: No increase; 50 kDa Hsp90 fragment on trypsin proteolysis (C-terminal Hsp90 antibody) (Hsp90 C-terminus; 1 mM compound): 50 kDa band was detected; concentration able to deplete Hsp90 client proteins as well as Geldanamycin at 500 nM ([2]; MCF-7 cells, Western blot): 1 µM |
| Cc1c(OC2CCN(C)CC2)ccc2cc(NC(=O)c3cn(Cc4ccccc4)nn3)c(=O)oc12 [4b, 1-Benzyl-N-(8-methyl-7-((1-methylpiperidin-4-yl)oxy)-2-oxo-2H-chromen-3-yl)-1H-1,2,3-triazole-4-carboxamide] | – | – | – | – | – | – | – | – | – | – | 9800 ± 13500 | low micromolar | 2400 | 1080 | 2100 ± 230 | 990 ± 80 | 1600 ± 210 | 15500 ± 8750 | – |
| CO[C@@H]1[C@@H](OC(N)=O)[C@@H](O)[C@H](Oc2ccc3c(O)c(NC(=O)c4ccc(O)c(CC=C(C)C)c4)c(=O)oc3c2C)OC1(C)C [novobiocin, reference compound] | – | – | – | – | – | – | – | – | – | – | – | – | – | – | – | – | – | – | 50 kDa Hsp90 fragment on trypsin proteolysis (C-terminal Hsp90 antibody) (Hsp90 C-terminus; 5 mM compound): 50 kDa band was detected |
